# Laboratory results: US20150166523A1, “BRANCHED CHAIN ALKYL HETEROAROMATIC RING DERIVATIVE” (TAISHO PHARMACEUTICAL CO., LTD., priority 2012, published 2015)
# Legend:
# [1] = target: T1, human orexin-1 receptor (hOX1R) (Homo sapiens, UniProt O43613); test: Measurement of orexin antagonistic activity (intracellular Ca2+ fluorescence, FDSS) on hOX1R; format: cell-based; details: CHO cells forcibly expressing hOX1R; Fluo-4AM; ligand peptide (substituted human orexin-A) 300 pM; compound preincubated 30 minutes; read-out: IC50 Value OX1
# T1 construct: expressed in transfected cells; host or cells: Chinese hamster ovary (CHO) cells
# T1 sequence (O43613 1-425): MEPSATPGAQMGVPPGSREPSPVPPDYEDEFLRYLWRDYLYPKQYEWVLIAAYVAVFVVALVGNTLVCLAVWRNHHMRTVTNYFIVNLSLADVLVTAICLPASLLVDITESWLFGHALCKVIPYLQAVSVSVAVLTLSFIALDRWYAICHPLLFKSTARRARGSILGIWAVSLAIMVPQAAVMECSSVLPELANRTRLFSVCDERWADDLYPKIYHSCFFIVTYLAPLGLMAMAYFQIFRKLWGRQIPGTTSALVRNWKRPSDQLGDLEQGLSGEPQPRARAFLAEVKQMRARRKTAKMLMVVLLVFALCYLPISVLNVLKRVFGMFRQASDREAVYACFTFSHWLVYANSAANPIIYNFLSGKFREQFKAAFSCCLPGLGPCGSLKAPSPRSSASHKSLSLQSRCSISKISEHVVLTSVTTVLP
# Outline: (§1)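 CHO cells stably expressing hOX1R or hOX2R, loaded with 0.5 μM Fluo-4AM in HEPES/HBSS buffer with 0.1% BSA and 2.5 mM probenecid, pH 7.4, then preincubated 30 min with compound. Fluorescence recorded each second for 3 min by FDSS; maximum intensity taken as intracellular Ca2+ indicator of antagonism.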
# [2] = target: T2, orexin-2 receptor (hOX2R) (Homo sapiens, UniProt O43614); test: Measurement of orexin antagonistic activity (intracellular Ca2+ fluorescence, FDSS) on hOX2R; format: cell-based; details: CHO cells forcibly expressing hOX2R; Fluo-4AM; ligand peptide (substituted human orexin-A) 3 nM; compound preincubated 30 minutes; read-out: IC50 Value OX2
# T2 construct: expressed in transfected cells; host or cells: Chinese hamster ovary (CHO) cells
# T2 sequence (O43614 1-444): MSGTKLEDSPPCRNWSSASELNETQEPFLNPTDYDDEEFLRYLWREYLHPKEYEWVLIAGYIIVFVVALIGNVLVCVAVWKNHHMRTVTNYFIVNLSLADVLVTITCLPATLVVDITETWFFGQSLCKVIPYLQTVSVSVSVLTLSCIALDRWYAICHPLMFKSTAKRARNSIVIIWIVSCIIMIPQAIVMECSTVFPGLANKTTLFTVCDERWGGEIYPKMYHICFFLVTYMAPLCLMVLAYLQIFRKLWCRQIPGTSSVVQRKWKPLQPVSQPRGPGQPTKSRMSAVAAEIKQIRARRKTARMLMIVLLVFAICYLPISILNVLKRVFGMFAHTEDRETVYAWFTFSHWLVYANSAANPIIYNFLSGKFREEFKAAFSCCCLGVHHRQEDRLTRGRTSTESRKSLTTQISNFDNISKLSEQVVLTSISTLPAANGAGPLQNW
# Outline: as §1
SMILES,IC50 [1],IC50 [2]
"Cc1ccc(-n2nccn2)c(C(=O)N(CCN(C)C)[C@@H](C)Cn2cc(-c3ccc(F)cc3)nn2)c1 [Example 89, N-[2-(Dimethylamino)ethyl]-N-{(2S)-1-[4-(4-fluorophenyl)-1H-1,2,3-triazol-1-yl]propan-2-yl}-5-methyl-2-(2H-1,2,3-triazol-2-yl)benzamide]",229 nM,6930 nM
"CCN(C(=O)c1nc(C)ccc1-n1nccn1)[C@@H](C)Cc1noc(-c2ccc(F)cn2)n1 [Example 58, N-Ethyl-N-{(2S)-1-[5-(5-fluoropyridin-2-yl)-1,2,4-oxadiazol-3-yl]propan-2-yl}-6-methyl-3-(2H-1,2,3-triazol-2-yl) pyridine-2-carboxamide]",22.2 nM,1620 nM
"Cc1ccc(-n2nccn2)c(C(=O)N(C)[C@@H](C)Cn2cc(-c3ccc(F)cc3)cn2)n1 [Example 28, N-{(2S)-1-[4-(4-Fluorophenyl)-1H-pyrazol-1-yl]propan-2-yl}-N,6-dimethyl-3-(2H-1,2,3-triazol-2-yl)pyridine-2-carboxamide]",18.6 nM,89.3 nM
"C[C@@H](Cn1ccc(-c2ccc(F)cn2)n1)N(C)C(=O)c1ccccc1-n1nccn1 [Example 20, N-{(2S)-1-[3-(5-Fluoropyridin-2-yl)-1H-pyrazol-1-yl]propan-2-yl}-N-methyl-2-(2H-1,2,3-triazol-2-yl)benzamide]",3.4 nM,55.9 nM
"CCN(C(=O)c1cc(C)ccc1-c1ncccn1)[C@@H](C)Cn1cc(-c2ccc(F)cn2)cn1 [Example 35, N-Ethyl-N-{(2S)-1-[4-(5-fluoropyridin-2-yl)-1H-pyrazol-1-yl]propan-2-yl}-5-methyl-2-(pyrimidin-2-yl)benzamide]",3.4 nM,62.8 nM
"COCCN(C(=O)c1cc(C)ccc1-n1nccn1)[C@@H](C)Cn1nnc(-c2ccc(F)cc2)n1 [Example 63, N-{(2S)-1-[5-(4-Fluorophenyl)-2H-tetrazol-2-yl]propan-2-yl}-N-(2-methoxyethyl)-5-methyl-2-(2H-1,2,3-triazol-2-yl)benzamide]",2.2 nM,66.9 nM
"COCCN(C(=O)c1cc(C)ccc1-n1nccn1)[C@@H](C)Cn1cc(-c2ccc(F)cc2)nn1 [Example 72, N-{(2S)-1-[4-(4-Fluorophenyl)-1H-1,2,3-triazol-1-yl]propan-2-yl}-N-(2-methoxyethyl)-5-methyl-2-(2H-1,2,3-triazol-2-yl)benzamide]",102 nM,401 nM
"CCN(C(=O)c1nc(C)ccc1-c1ncccn1)[C@@H](C)Cc1noc(-c2ccc(F)cc2)n1 [Example 52, N-Ethyl-N-{(2S)-1-[5-(4-fluorophenyl)-1,2,4-oxadiazol-3-yl]propan-2-yl}-6-methyl-3-(pyrimidin-2-yl)pyridine-2-carboxamide]",9.2 nM,376 nM
"CCN(C(=O)c1cc(Cl)ccc1-c1ncccn1)[C@@H](C)Cn1cc(-c2ccc(F)cn2)cn1 [Example 37, 5-Chloro-N-ethyl-N-{(2S)-1-[4-(5-fluoropyridin-2-yl)-1H-pyrazol-1-yl]propan-2-yl}-2-(pyrimidin-2-yl) benzamide]",7.1 nM,83.1 nM
"CCN(C(=O)c1cc(F)ccc1-n1nccn1)[C@@H](C)Cn1cc(-c2ccc(F)cn2)nn1 [Example 78, N-Ethyl-5-fluoro-N-{(2S)-1-[4-(5-fluoropyridin-2-yl)-1H-1,2,3-triazol-1-yl]propan-2-yl}-2-(2H-1,2,3-triazol-2-yl)benzamide]",20.9 nM,593 nM
"CCN(C(=O)c1cc(C)ccc1-n1nccn1)[C@@H](C)Cn1cc(-c2ccc(F)c(OC)c2)nn1 [Example 99, N-Ethyl-N-{(2S)-1-[4-(4-fluoro-3-methoxyphenyl)-1H-1,2,3-triazol-1-yl]propan-2-yl}-5-methyl-2-(2H-1,2,3-triazol-2-yl)benzamide]",1.8 nM,1.5 nM
"CCN(C(=O)c1cc(C)ccc1-n1nccn1)[C@@H](C)Cn1cc(-c2ccc(O)cc2)nn1 [Example 100, N-Ethyl-N-{(2S)-1-[4-(4-hydroxyphenyl)-1H-1,2,3-triazol-1-yl]propan-2-yl}-5-methyl-2-(2H-1,2,3-triazol-2-yl)benzamide]",10.4 nM,774 nM
"CCN(C(=O)c1nc(C)ccc1-n1nccn1)[C@@H](C)Cn1cc(-c2ccc(F)cn2)nn1 [Example 77, N-Ethyl-N-{(2S)-1-[4-(5-fluoropyridin-2-yl)-1H-1,2,3-triazol-1-yl]propan-2-yl}-6-methyl-3-(2H-1,2,3-triazol-2-yl)pyridine-2-carboxamide]",48.8 nM,1450 nM

# Stronger by IC50 [1], values ahead:
IC50 [1],IC50 [2],SMILES
1.7 nM,55.9 nM,"CCN(C(=O)c1nc(C)ccc1-n1nccn1)[C@@H](C)Cn1cc(-c2ccc(F)cc2)cn1 [Example 26, N-Ethyl-N-{(2S)-1-[4-(4-fluorophenyl)-1H-pyrazol-1-yl]propan-2-yl}-6-methyl-3-(2H-1,2,3-triazol-2-yl)pyridine-2-carboxamide]"
1.4 nM,9.4 nM,"CCN(C(=O)c1cc(C)ccc1-c1ncccn1)[C@@H](C)Cc1noc(-c2ccc(F)cc2)n1 [Example 55, N-Ethyl-N-{(2S)-1-[5-(4-fluorophenyl)-1,2,4-oxadiazol-3-yl]propan-2-yl}-5-methyl-2-(pyrimidin-2-yl)benzamide]"
1.4 nM,27.9 nM,"Cc1ccc(-n2nccn2)c(C(=O)N(CC(C)O)[C@@H](C)Cn2cc(-c3ccc(F)cc3)cn2)c1 (stereo partly drawn) [Example 102, N-{(2S)-1-[4-(4-Fluorophenyl)-1H-pyrazol-1-yl]propan-2-yl}-N-(2-hydroxypropyl)-5-methyl-2-(2H-1,2,3-triazol-2-yl)benzamide]"
1.3 nM,144 nM,"CCN(C(=O)c1nc(C)ccc1-n1nccn1)[C@@H](C)Cn1nnc(-c2ccc(F)cc2)n1 [Example 65, N-Ethyl-N-{(2S)-1-[5-(4-fluorophenyl)-2H-tetrazol-2-yl]propan-2-yl}-6-methyl-3-(2H-1,2,3-triazol-2-yl)pyridine-2-carboxamide]"
1.3 nM,45 nM,"Cc1ccc(-c2ncccn2)c(C(=O)N(C)[C@@H](C)Cc2noc(-c3ccc(F)cc3)n2)c1 [Example 60, N-{(2S)-1-[5-(4-Fluorophenyl)-1,2,4-oxadiazol-3-yl]propan-2-yl}-N,5-dimethyl-2-(pyrimidin-2-yl)benzamide]"
1 nM,4.5 nM,"CCN(C(=O)c1nc(C)ccc1-n1nccn1)[C@@H](C)Cn1ccc(-c2ccc(F)cc2)n1 [Example 3, N-Ethyl-N-[(2S)-1-[3-(4-fluorophenyl)-1H-pyrazol-1-yl]propan-2-yl]-6-methyl-3-(2H-1,2,3-triazol-2-yl) pyridine-2-carboxamide]"
1 nM,10.2 nM,"CCN(C(=O)c1cc(F)ccc1-c1ncccn1)[C@@H](C)Cn1cc(-c2ccc(F)c(F)c2)cn1 [Example 31, N-{(2S)-1-[4-(3,4-Difluorophenyl)-1H-pyrazol-1-yl]propan-2-yl}-N-ethyl-5-fluoro-2-(pyrimidin-2-yl)benzamide]"
0.7 nM,7.7 nM,"CCN(C(=O)c1ccccc1-n1nccn1)[C@@H](C)Cn1ccc(-c2ccc(F)cn2)n1 [Example 18, N-Ethyl-N-{(2S)-1-[3-(5-fluoropyridin-2-yl)-1H-pyrazol-1-yl]propan-2-yl}-2-(2H-1,2,3-triazol-2-yl)benzamide]"
0.7 nM,6.4 nM,"CCN(C(=O)c1cc(C)ccc1-n1nccn1)[C@@H](C)Cn1cc(-c2ccc(F)cn2)cn1 [Example 25, N-Ethyl-N-{(2S)-1-[4-(5-fluoropyridin-2-yl)-1H-pyrazol-1-yl]propan-2-yl}5-methyl-2-(2H-1,2,3-triazol-2-yl) benzamide]"
0.7 nM,2.3 nM,"CCN(C(=O)c1cc(C)ccc1-n1nccn1)[C@@H](C)Cn1nnc(-c2ccc(F)cc2)n1 [Example 62, N-Ethyl-N-{(2S)-1-[5-(4-fluorophenyl)-2H-tetrazol-2-yl]propan-2-yl}-5-methyl-2-(2H-1,2,3-triazol-2-yl)benzamide]"
0.2 nM,9.3 nM,"CCN(C(=O)c1ccccc1-n1nccn1)[C@@H](C)Cc1noc(-c2ccc(F)cc2)n1 [Example 51, N-Ethyl-N-{(2S)-1-[5-(4-fluorophenyl)-1,2,4-oxadiazol-3-yl]propan-2-yl}-2-(2H-1,2,3-triazol-2-yl)benzamide]"
